Assay results: patent US4558134A, “Certain phenoxy-pyridine-carbonitriles having antiviral activity” (The Dow Chemical Company, priority 1983, dated 1985)
In brackets after ≈: the same amount, converted by molar mass. Read-outs that look alike come from different tables or passages of the source.

Key:
in vitro = conditions: human, hela cells
[1] = test system: rhinovirus type 39 (RV-39); assay: Tissue culture testing, reduction of viral cytopathic effect, RV-39; format: cell-based; conditions: Enterovirus, read-out: Lowest concentration of the compound necessary to cause a 50 percent reduction in cytopathic effect, RV-39
[2] = test system: polio virus type 2 (Polio-2); assay: organism not typed; format: cell-based; conditions: HeLa, read-out: Lowest concentration of the compound necessary to cause a 50 percent reduction in cytopathic effect, Polio-2
[3] = test system: Coxsackie A21 virus (Cox A21); assay: Tissue culture testing, reduction of viral cytopathic effect, Cox A21; format: cell-based; conditions: HeLa cells, 48 and 72 hours, read-out: Lowest concentration of the compound necessary to cause a 50 percent reduction in cytopathic effect, CoxA21
[4] = test system: rhinovirus type 1A (RV-1A); assay: Tissue culture testing, reduction of viral cytopathic effect, RV-1A; format: cell-based; conditions: Enterovirus, read-out: Lowest concentration of the compound necessary to cause a 50 percent reduction in cytopathic effect, RV-1A
Coxsackie A21 virus = assay: Continuous Oral Feeding test in mice challenged IP with Coxsackie A21 virus; conditions: 0.06% by weight in diet; 10 days; >3.84 active (95% confidence level)
rhinovirus type 2 (RV-2) = assay: Tissue culture testing, reduction of viral cytopathic effect, RV-2; format: cell-based; conditions: Enterovirus, read-out: Lowest concentration of the compound necessary to cause a 50 percent reduction in cytopathic effect, RV-2
[5] = test system: rhinovirus type 64 (RV-64); assay: Tissue culture testing, reduction of viral cytopathic effect, RV-64; format: cell-based; conditions: Enterovirus, read-out: Lowest concentration of the compound necessary to cause a 50 percent reduction in cytopathic effect, RV-64
[6] = HeLa cells, RV-39, 48 and 72 hours
[7] = HeLa cells, RV-1A, 48 and 72 hours
[8] = HeLa cells, RV-2, 48 and 72 hours
[9] = HeLa cells, RV-64, 48 and 72 hours

Compound | MCC (in vitro) | EC50 [1, 6] | EC50 [2] | EC50 [3] | EC50 [4, 7] | Continuous Oral Feeding X^2 (chi-square, mortality) (Coxsackie A21 virus) | EC50 (rhinovirus type 2 (RV-2); [8]) | EC50 [5, 9] | EC50 ([1]; HeLa) | EC50 ([4]; HeLa) | EC50 (rhinovirus type 2 (RV-2); HeLa) | EC50 ([5]; HeLa)
CCSc1ccc(Oc2ccc(Cl)c(Cl)c2)nc1C#N [Example 20, 6-(3,4-Dichlorophenoxy)-3-ethylthio-2-pyridinecarbonitrile] | > 12.5 µg/mL | 6.25 µg/mL (≈ 19.2 µM) | < 0.78 µg/mL | 0.03 µg/mL (≈ 0.0922 µM) | 3.13 µg/mL (≈ 9.62 µM) | 6.5 | 3.13 µg/mL (≈ 9.62 µM) | 12.5 µg/mL (≈ 38.4 µM) | – | – | – | –
CCSc1ccc(Oc2ccc(Cl)c(Cl)c2)c(C#N)n1 [Example 21, 3-(3,4-Dichlorophenoxy)-6-ethylthio-2-pyridinecarbonitrile] | 2.5 µg/mL | – | – | 0.6 µg/mL (≈ 1.84 µM) | 2.5 µg/mL (≈ 7.69 µM) | – | 0.6 µg/mL (≈ 1.84 µM) | 2.5 µg/mL (≈ 7.69 µM) | – | – | – | –
CCSc1cnc(Oc2ccc(Cl)c(Cl)c2)cc1C#N [Example 22, 2-(3,4-Dichlorophenoxy)-5-ethylthio-4-pyridinecarbonitrile] | 50 µg/mL | – | – | 0.63 µg/mL (≈ 1.94 µM) | > 50 µg/mL | – | 2.5 µg/mL (≈ 7.69 µM) | – | – | – | – | –
CCSc1cc(C#N)c(Oc2ccc(Cl)c(Cl)c2)cn1 [Example 23, 5-(3,4-Dichlorophenoxy)-2-ethylthio-4-pyridinecarbonitrile] | 50 µg/mL | – | – | 2.5 µg/mL (≈ 7.69 µM) | > 50 µg/mL | – | 2.5 µg/mL (≈ 7.69 µM) | – | – | – | – | –
CSc1cc(C#N)c(Oc2ccc(Cl)c(Cl)c2)cn1 [Example 24, 5-(3,4-Dichlorophenoxy)-2-methylthio-4-pyridinecarbonitrile] | > 50 µg/mL | – | – | 1.25 µg/mL (≈ 4.02 µM) | > 50 µg/mL | – | > 50 µg/mL | > 50 µg/mL | – | – | – | –
CSc1ccc(Oc2ccc(Cl)c(Cl)c2)nc1C#N [Example 25, 6-(3,4-Dichlorophenoxy)-3-methylthio-2-pyridinecarbonitrile] | > 50 µg/mL | – | – | < 3.1 µg/mL | 25 µg/mL (≈ 80.3 µM) | – | – | – | – | – | – | –
CCSc1ccc(Oc2ccc(C(=O)c3ccccc3)cc2)nc1C#N [Example 26, 6-(4-Benzoylphenoxy)-3-ethylthio-2-pyridinecarbonitrile] | 50 µg/mL | – | – | < 3.1 µg/mL | 25 µg/mL (≈ 69.4 µM) | 27.5 | < 3.1 µg/mL | – | – | – | – | –
CCSc1ncc(Oc2ccc(Cl)c(Cl)c2)cc1C#N [Example 27, 5-(3,4-Dichlorophenoxy)-2-ethylthio-3-pyridinecarbonitrile] | > 50 µg/mL | – | – | < 3.13 µg/mL | – | – | – | – | – | – | – | –
CCSc1cnc(Oc2ccc(Cl)c(Cl)c2)c(C#N)c1 [Example 28, 2-(3,4-Dichlorophenoxy)-5-ethylthio-3-pyridinecarbonitrile] | > 50 µg/mL | – | – | 1.25 µg/mL (≈ 3.84 µM) | > 50 µg/mL | – | > 50 µg/mL | > 50 µg/mL | – | – | – | –
C[S+]([O-])c1ccc(Oc2ccc(Cl)c(Cl)c2)nc1C#N (stereo not drawn) [Example 29, 6-(3,4-Dichlorophenoxy)-3-methylsulfinyl-2-pyridinecarbonitrile] | > 50 µg/mL | – | – | 12.5 µg/mL (≈ 38.2 µM) | 12.5 µg/mL (≈ 38.2 µM) | – | 12.5 µg/mL (≈ 38.2 µM) | – | – | – | – | –
C[S+]([O-])c1ccc(Oc2ccc(Cl)c(Cl)c2)nc1C(N)=O (stereo not drawn) [Example 30, 6-(3,4-Dichlorophenoxy)-3-methylsulfinyl-2-pyridinecarboxamide] | 25 µg/mL | – | – | < 3.1 µg/mL | 6.3 µg/mL (≈ 18.2 µM) | – | 6.3 µg/mL (≈ 18.2 µM) | – | – | – | – | –
CC[S+]([O-])c1ccc(Oc2ccc(Cl)c(Cl)c2)nc1C#N (stereo not drawn) [Example 31, 6-(3,4-Dichlorophenoxy)-3-ethylsulfinyl-2-pyridinecarbonitrile] | 50 µg/mL | – | – | < 3.1 µg/mL | 12.5 µg/mL (≈ 36.6 µM) | – | 12.5 µg/mL (≈ 36.6 µM) | – | – | – | – | –
CS(=O)(=O)c1ccc(Oc2ccc(Cl)c(Cl)c2)nc1C#N [Example 32, 6-(3,4-Dichlorophenoxy)-3-methylsulfonyl-2-pyridinecarbonitrile] | > 12.5 µg/mL | – | > 12.5 µg/mL | > 50 µg/mL | 6.25 µg/mL (≈ 18.2 µM) | 10.1 | 6.25 µg/mL (≈ 18.2 µM) | 3.13 µg/mL (≈ 9.12 µM) | > 12.5 µg/mL | – | – | –
CCS(=O)(=O)c1ccc(Oc2ccc(Cl)c(Cl)c2)nc1C#N [Example 33, 6-(3,4-Dichlorophenoxy)-3-ethylsulfonyl-2-pyridinecarbonitrile] | 50 µg/mL | – | – | < 3.1 µg/mL | – | – | < 3.1 µg/mL | – | – | – | – | –
CCCSc1ccc(Oc2ccc(Cl)c(Cl)c2)nc1C#N [Example 34, 6-(3,4-Dichlorophenoxy)-3-propylthio-2-pyridinecarbonitrile] | > 50 µg/mL | 25 µg/mL (≈ 73.7 µM) | 1.56 µg/mL (≈ 4.6 µM) | 0.08 µg/mL (≈ 0.236 µM) | – | – | 3.13 µg/mL (≈ 9.23 µM) | > 12.5 µg/mL | – | 1.56 µg/mL (≈ 4.6 µM) | – | –
CCCSc1ccc(Oc2ccc(Cl)c(Cl)c2)c(C#N)n1 [Example 35, 3-(3,4-Dichlorophenoxy)-6-propylthio-2-pyridinecarbonitrile] | 50 µg/mL | – | 12.5 µg/mL (≈ 36.8 µM) | < 3.13 µg/mL | 0.78 µg/mL (≈ 2.3 µM) | – | – | – | 12.5 µg/mL (≈ 36.8 µM) | – | 12.5 µg/mL (≈ 36.8 µM) | > 12.5 µg/mL
CC(C)Sc1ccc(Oc2ccc(Cl)c(Cl)c2)nc1C#N [Example 36, 6-(3,4-Dichlorophenoxy)-3-isopropylthio-2-pyridinecarbonitrile] | 12.5 µg/mL | 1.56 µg/mL (≈ 4.6 µM) | – | < 1.56 µg/mL | ≤ 1.56 µg/mL | – | ≤ 1.56 µg/mL | 3.13 µg/mL (≈ 9.23 µM) | – | – | – | –
CC(C)Sc1ccc(Oc2ccc(Cl)c(Cl)c2)c(C#N)n1 [Example 37, 3-(3,4-Dichlorophenoxy)-6-isopropylthio-2-pyridinecarbonitrile] | ≥ 25 µg/mL | – | – | < 1.56 µg/mL | 3.13 µg/mL (≈ 9.23 µM) | – | < 1.56 µg/mL | ≤ 1.56 µg/mL | – | – | – | –
CCCCSc1ccc(Oc2ccc(Cl)c(Cl)c2)nc1C#N [Example 38, 6-(3,4-Dichlorophenoxy)-3-(n-butylthio)-2-pyridinecarbonitrile] | > 25 µg/mL | – | – | < 1.56 µg/mL | 12.5 µg/mL (≈ 35.4 µM) | – | 6.25 µg/mL (≈ 17.7 µM) | 12.5 µg/mL (≈ 35.4 µM) | – | – | – | –
CCCCSc1ccc(Oc2ccc(Cl)c(Cl)c2)c(C#N)n1 [Example 39, 3-(3,4-Dichlorophenoxy)-6-(n-butylthio)-2-pyridinecarbonitrile] | ≥ 25 µg/mL | – | – | 1.56 µg/mL (≈ 4.42 µM) | > 25 µg/mL | – | 3.13 µg/mL (≈ 8.86 µM) | 12.5 µg/mL (≈ 35.4 µM) | – | – | – | –
CCC(C)Sc1ccc(Oc2ccc(Cl)c(Cl)c2)nc1C#N (stereo not drawn) [Example 40, 6-(3,4-Dichlorophenoxy)-3-(sec-butylthio)-2-pyridinecarbonitrile] | > 25 µg/mL | 10 µg/mL (≈ 28.3 µM) | – | 0.16 µg/mL (≈ 0.453 µM) | 1.56 µg/mL (≈ 4.42 µM) | – | 1.25 µg/mL (≈ 3.54 µM) | 1.56 µg/mL (≈ 4.42 µM) | – | – | – | –
CCC(C)Sc1ccc(Oc2ccc(Cl)c(Cl)c2)c(C#N)n1 (stereo not drawn) [Example 41, 3-(3,4-Dichlorophenoxy)-6-(sec-butylthio)-2-pyridinecarbonitrile] | > 25 µg/mL | – | – | ≤ 1.56 µg/mL | 6.25 µg/mL (≈ 17.7 µM) | – | < 1.56 µg/mL | < 1.56 µg/mL | – | – | – | –
CC(C)CSc1ccc(Oc2ccc(Cl)c(Cl)c2)nc1C#N [Example 42, 6-(3,4-Dichlorophenoxy)-3-(isobutylthio)-2-pyridinecarbonitrile] | > 25 µg/mL | – | – | < 1.56 µg/mL | 12.5 µg/mL (≈ 35.4 µM) | – | 6.25 µg/mL (≈ 17.7 µM) | 6.25 µg/mL (≈ 17.7 µM) | – | – | – | –
CC(C)CSc1ccc(Oc2ccc(Cl)c(Cl)c2)c(C#N)n1 [Example 43, 3-(3,4-Dichlorophenoxy)-6-(isobutylthio)-2-pyridinecarbonitrile] | ≥ 25 µg/mL | – | – | 1.56 µg/mL (≈ 4.42 µM) | 12.5 µg/mL (≈ 35.4 µM) | – | ≤ 1.56 µg/mL | 3.13 µg/mL (≈ 8.86 µM) | – | – | – | –
